From publication PMC12477080, “Polychlorinated biphenyls (PCBs) interact with drug metabolism in vivo” (Archives of Toxicology, 2025)

Experiments:
CYP1A2 = assay: CYP phenotyping cocktail clinical study: caffeine/paraxanthine metabolic ratio and its association with PCB plasma levels
Description: (§1) The participants were ascertained not to have any acute disease by medical history, physical examination, laboratory screening, including hematological and biochemical blood tests, and a 12-lead electrocardiogram. […] The demographic data of the subjects are summarized in Table 1 in the supplemental data. At the enrollment visit, 2 blood samples (9 ml each) were collected into ethylenediaminetetraacetic acid (EDTA)-containing tubes taken from each subject for analyzing the plasma concentrations of PCB congeners and for pharmacogenetic analysis.
(§2) Participants stayed fasted from the evening before until 3 h after drug administration. After that, a meal was provided. Water and juice were permitted but alcoholic and caffeinated beverages were not allowed from the evening before drug administration until the last blood sample was taken on the next day. Venous blood samples (9 ml each) were collected through an intravenous catheter immediately before and 0.25, 0.5, 0.75, 1, 1.5, 2, 2.5, 3, 4, 5, 6, 7, 8, and 24 h after drug administration. Blood was drawn into EDTA-coated tubes, centrifuged at 1500 g for 10 min at 4 °C, and plasma samples were subsequently stored at − 80 °C until further analysis. After completely voiding the bladder immediately before drug administration, the participants collected urine from 0 to 24 h after drug administration. After weighing the collected urine, a 10 ml aliquot of each fraction was taken.
(§3) Commercially sourced standards and internal standards were used for quantification (see Supplemental Materials). In brief, 20 µl of the plasma samples were protein-precipitated with 80 µl methanol containing all internal standards or were treated for 16 h at 37 °C with 2 µl β-glucuronidase (1,000,000 Units) for deconjugation before protein precipitation with 78 µl methanol containing internal standards. Samples were centrifuged for 20 min, at 4 °C and 17,000 × g, and 40 µl of the supernatants were diluted with 40 µl LC–MS grade water, centrifuged again for 5 min at 4 °C and 17,000 × g and 50 µl supernatant were transferred to LC–MS vials 5 µl of the samples were injected into the LC–MS system.
An Agilent 1290 Infinity II UHPLC coupled with a SCIEX QTRAP6500 + triple quadrupole mass spectrometer was used. […]
Partial areas under the plasma concentration–time curves from 0 to 3 h (AUC0–3 h), from 0 to 4 h (AUC0–4 h), and from 0 to 8 h (AUC0–8 h) were calculated based on measured concentrations by the linear trapezoidal rule without extrapolation. […] Metabolic ratios (MR) were calculated by dividing the partial AUC of the metabolite by the respective partial AUC of the parent drug. […]

CYP1A2 mRNA = CYP1A2 mRNA expression in primary human hepatocytes (qRT-PCR); type: cell-based; details: three donors, 48 h exposure, PCB118 0.1–0.5 µM, omeprazole positive control
recombinant CYP1A2 = biological target: T1, recombinant CYP1A2 (Homo sapiens, UniProt P05177); assay: Luciferase-based P450-Glo enzyme assay with recombinant CYP1A2; type: biochemical; details: PCB118 1–10 µM; Luciferin–ME substrate; significant at highest concentration (p < 0.0001)
T1 construct: purchased Promega, Madison, WI, USA
T1 sequence (P05177 1-516): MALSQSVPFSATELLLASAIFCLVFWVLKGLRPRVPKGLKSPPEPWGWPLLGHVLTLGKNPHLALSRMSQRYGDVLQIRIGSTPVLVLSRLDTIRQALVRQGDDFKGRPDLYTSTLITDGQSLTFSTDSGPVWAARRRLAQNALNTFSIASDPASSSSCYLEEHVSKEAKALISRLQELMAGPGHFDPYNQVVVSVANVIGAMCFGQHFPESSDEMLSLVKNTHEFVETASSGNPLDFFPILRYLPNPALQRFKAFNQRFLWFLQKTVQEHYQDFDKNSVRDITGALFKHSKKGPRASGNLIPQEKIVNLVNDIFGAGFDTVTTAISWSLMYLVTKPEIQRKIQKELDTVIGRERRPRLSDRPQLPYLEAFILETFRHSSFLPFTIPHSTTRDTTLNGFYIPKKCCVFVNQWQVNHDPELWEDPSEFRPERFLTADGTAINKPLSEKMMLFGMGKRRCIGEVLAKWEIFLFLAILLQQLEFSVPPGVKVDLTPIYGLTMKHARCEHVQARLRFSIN

CYP2C9 = assay: CYP phenotyping cocktail clinical study: torsemide/OH-torsemide metabolic ratio and its association with PCB plasma levels; details: linear regression of MR AUC0–8 h OH-torsemide/torsemide (CYP2C9 activity) on PCB plasma concentration
Description: as §1, §2, §3
An Agilent 1290 Infinity II UHPLC coupled with a SCIEX QTRAP6500 + triple quadrupole mass spectrometer was used. Chromatographic separation was achieved on an Agilent Poroshell 120 EC-C18 (1.9 µm, 2.1 × 50 mm) column with A: 0.1% formic acid in water and B: methanol with a flow rate of 0.7 ml/min and a total run time of 8.5 min. Analytes were eluted using a gradient program. The following gradient steps represent gradual changes in % B over time: 5% B from 0 to 0.2 min, 30% B at 2 min, 34% B at 4.8 min, 95% B at 6.5 min, 95% B at 7.5 min and re-equilibrating to 5% B at 7.7 min and 5%B till 8.5 min. A representative chromatogram is shown in supplemental Fig. 2. The scheduled MRM mode was applied for analyte detection in both positive and negative ESI modes (Supplementary Table 4). Calibration curves were constructed with linear regression using weighted (1/x^2) models (detailed information in supplemental methods).
Partial areas under the plasma concentration–time curves from 0 to 3 h (AUC0–3 h), from 0 to 4 h (AUC0–4 h), and from 0 to 8 h (AUC0–8 h) were calculated based on measured concentrations by the linear trapezoidal rule without extrapolation. […] Metabolic ratios (MR) were calculated by dividing the partial AUC of the metabolite by the respective partial AUC of the parent drug. The MRs were used as biomarkers for the individual CYP activities of the study subjects.

Clc1ccc(-c2cc(Cl)c(Cl)cc2Cl)cc1Cl [PCB118]
association with CYP1A2 activity in hierarchical generalized mixed model (CYP1A2; adjusted for co-factors (smoking status, gender, BMI, age)): became significant when smoking status was included as a co-factor | proportion of variability in CYP1A2 activity explained (CYP1A2; linear regression, MR paraxanthine/caffeine on PCB118 plasma concentration): ~ 15.5% | effect on CYP1A2 mRNA expression (CYP1A2 mRNA): did not significantly alter CYP1A2 mRNA levels | effect on CYP1A2 enzyme activity (luminescence) (recombinant CYP1A2): concentration-dependent inhibitory effect | t value (CYP2C9): 1,339 | β (standardized regression coefficient) (CYP2C9): 0,301 | t value (CYP2C9; PM excl): 1,228 | β (standardized regression coefficient) (CYP2C9; PM excl): 0,286
